# Results as given in publication PMC9539280 (Advanced Science, 2022).
# Columns and labels:
# [1] = tested on: hEHTs (human engineered heart tissues)
# hCMs [2] = tested on: hCMs
# hCMs [3] = tested on: hCMs; remark: listed apart in the source
# [4] = in vivo; cited from earlier work
# hCMs [5] = tested on: hCMs; remark: listed apart in the source
# hCMs [6] = tested on: hCMs; remark: listed apart in the source
# [7] = tested on: hEHTs (human engineered heart tissues); remark: listed apart in the source
# [8] = tested on: hCMs (human pluripotent stem cell-derived cardiomyocytes); test: Cytotoxicity assay, calcein-AM/PI double staining, relative cell viability; assay type: cell-based; settings: 6 days, escalating concentrations (0.03-3 or 1-30 × 10^−6 M), calcein-AM/PI
# Protocol: hCMs were dissociated with 0.25% trypsin/EDTA (25200072, Gibco) and then seeded into 384‐well plates at the density of 8 × 10^3 cells per well. 24 h after seeding, cells were exposed to the drugs at the indicated concentrations for 6 days. Culture media were fully changed every 3 days with new drug supplementation. After drug treatment, cells were stained with calcein‐AM/PI/Hoechst for 20 min using calcein‐AM/PI double staining kit (C542, DOJINDO). Images were captured by the Operetta CLS High‐Content Analysis System (PerkinElmer). Number of live cells (calcein‐AM+/PI‐) and dead cells (PI+) was quantified by using the Harmony 4.9 software (PerkinElmer). Number of live cells was used to calculate the “relative cell viability” as follows (1) relarivecellviability=numberoflivecellsineachtreatment/numberoflivecellsinDMSOcontrol×100%
smiles,measurement,setting,value
"Cc1cccc(/C=N/Nc2cc(N3CCOCC3)nc(OCCc3ccccn3)n2)c1 [Apilimod, apilimod]",abnormal beating of hEHTs (spontaneous contractility),[1],more severe
same,contractile force of hEHTs,[1],much lower
same,hEHT function (tissue level cardiotoxicity),[1],weaken hEHT function
same,passive force of hEHTs,[1],increases of the passive force
same,sarcomere organization of hCMs,hCMs [2],sarcomeric disarray
same,apoptosis of hCMs (TUNEL),hCMs [3],increased apoptosis
same,Cmax,[4],270 nM
same,calcium transient amplitude,hCMs [5],without apparently affecting
same,time to 50% decay of the calcium transients,hCMs [5],increased
same,time to peak of the calcium transients,hCMs [5],increased
same,intracellular calcium handling properties of hCMs,hCMs [6],impair
same,toxicity to hEHTs,[7],toxic to hEHTs
same,cell viability of hCMs,[8],dose‐dependent decrease
